Results reported in patent US11291206B2, “Herbicidal composition comprising cinmethylin and specific pigment synthesis inhibitors” (BASF Agro B.V., priority 2015, dated 2022).

Assays:
Assay type in all cases: in vivo
Polygonum convolvulus = assay: Greenhouse pre-emergence herbicidal activity; conditions: preemergence, POLCO, 20 DAT
Description: (§1) The test plants have been seeded, separately for each species, in plastic containers in sandy loamy soil containing 5% of organic matter.
(§2) The containers were irrigated gently to promote germination and growth and subsequently covered with transparent plastic hoods until the plants had rooted.
(§3) The plants have been cultivated due to their individual requirements at 10-25° C. and 20-35° C. The plants were irrigated due to their necessity.
(§4) The racemic mixture (±)-2-exo-(2-M ethylbenzyloxy)-1-methyl-4-isopropyl-7-oxabicyclo[2.2.1]heptane was used as herbicide A and formulated as emulsifiable concentrates with an active ingredient concentration of 50g/I, 100 g/I or 750 g/I respectively.
(§5) Clomazone (herbicide B.3) was used as wettable powder (WP) formulation having an active ingredient concentration of 50%.
(§6) In the following experiments, the herbicidal activity for the individual herbicidal compositions (solo and mixture applications) was assessed 20 days after treatment (DAT).
(§7) The evaluation for the damage on undesired weeds caused by the chemical compositions was carried out using a scale from 0 to 100%, compared to the untreated control plants. Here, 0 means no damage and 100 means complete destruction of the plants.
(§8) E=X+Y−(X·Y/100) where • X=effect in percent using herbicide A at an application rate a; • Y=effect in percent using herbicide B at application rate b; • E=expected effect (in %) of herbicide A+herbicide B at application rates a+b.
(§9) The value E corresponds to the effect (plant damage or injury) which is to be expected if the activity of the individual compounds is additive.

Brassica napus = assay: Greenhouse pre-emergence herbicidal activity; conditions: preemergence, BRSNW, 20 DAT
Description: as §1, §2, §3, §4, §5, §6, §7, §8, §9

Geranium dissectum = assay: Greenhouse pre-emergence herbicidal activity; conditions: preemergence, GERDI, 20 DAT
Description: as §1, §2, §3, §4, §5, §6, §7, §8, §9

Papaver rhoeas = assay: Greenhouse pre-emergence herbicidal activity; conditions: preemergence, PAPRH, 20 DAT
Description: as §1, §2, §3, §4, §5, §6, §7, §8, §9

Lolium multiflorum [1] = assay: Greenhouse pre-emergence herbicidal activity; conditions: preemergence, LOLMU, 20 DAT
Description: as §1, §2, §3, §4, §5, §6, §7, §8, §9

Anthemis arvensis [2] = assay: Greenhouse pre-emergence herbicidal activity; conditions: preemergence, ANTAR, 20 DAT
Description: as §1, §2, §3, §4, §5, §6, §7, §8, §9

Lolium multiflorum [3] = assay: Greenhouse post-emergence herbicidal activity; conditions: postemergence, LOLMU, 20 DAT
Description: as §1
(§10) For the post emergence treatment, the plants were first grown to the 2 leaf station (GS 12) and applied at GS 12-19 depending on the species. Here, the herbicidal compositions were suspended or emulsified in water as distribution medium and sprayed using finely distributing nozzels.
as §3, §4, §5, §6, §7, §8, §9

Anthemis arvensis [4] = assay: Greenhouse post-emergence herbicidal activity; conditions: postemergence, ANTAR, 20 DAT
Description: as §1, §10, §3, §4, §5, §6, §7, §8, §9

[5] = solo application herbicide A 62.5 g ai/ha
[6] = solo application herbicide A 250 g ai/ha
[7] = solo application herbicide A 125 g ai/ha
[8] = solo application clomazone 125 g ai/ha
[9] = solo application clomazone 187.5 g ai/ha
[10] = solo application clomazone 500 g ai/ha
[11] = solo application clomazone 250 g ai/ha
[12] = solo application clomazone 750 g ai/ha

Cc1ccccc1CO[C@@H]1C[C@@]2(C(C)C)CC[C@]1(C)O2 (racemic) [herbicide A, (±)-2-exo-(2-Methylbenzyloxy)-1-methyl-4-isopropyl-7-oxabicyclo[2.2.1]heptane]
herbicidal activity (Polygonum convolvulus; [5]): 0% | herbicidal activity (Brassica napus; [5]): 0% | herbicidal activity (Brassica napus; [6]): 15% | herbicidal activity (Brassica napus; solo application herbicide A 500 g ai/ha): 40% | herbicidal activity (Geranium dissectum; [5]): 70% | herbicidal activity (Geranium dissectum; [7]): 70% | herbicidal activity (Geranium dissectum; [6]): 70% | herbicidal activity (Papaver rhoeas; [6]): 65% | herbicidal activity (Lolium multiflorum [1]; [5]): 85% | herbicidal activity (Anthemis arvensis [2]; [5]): 0% | herbicidal activity (Anthemis arvensis [2]; [7]): 20% | herbicidal activity (Lolium multiflorum [3]; [5]): 35% | herbicidal activity (Anthemis arvensis [4]; [7]): 0% | herbicidal activity (Anthemis arvensis [4]; [6]): 40%

CC1(C)CON(Cc2ccccc2Cl)C1=O [clomazone, 2-(2-chlorobenzyl)-4,4-dimethyl-1,2-oxazolidin-3-one]
herbicidal activity (Polygonum convolvulus; [8]): 75% | herbicidal activity (Brassica napus; [8]): 40% | herbicidal activity (Brassica napus; [9]): 45% | herbicidal activity (Brassica napus; [10]): 75% | herbicidal activity (Brassica napus; solo application clomazone 1000 g ai/ha): 90% | herbicidal activity (Geranium dissectum; [8]): 30% | herbicidal activity (Geranium dissectum; [11]): 40% | herbicidal activity (Geranium dissectum; [12]): 80% | herbicidal activity (Papaver rhoeas; [10]): 90% | herbicidal activity (Lolium multiflorum [1]; [8]): 85% | herbicidal activity (Anthemis arvensis [2]; [8]): 60% | herbicidal activity (Anthemis arvensis [2]; [11]): 85% | herbicidal activity (Lolium multiflorum [3]; [8]): 80% | herbicidal activity (Lolium multiflorum [3]; [9]): 90% | herbicidal activity (Anthemis arvensis [4]; solo application clomazone 375 g ai/ha): 75% | herbicidal activity (Anthemis arvensis [4]; [12]): 90%
